Test results: patent US6800481B1, “Stable macroscopic membranes formed by self-assembly of amphiphilic peptides and uses therefor” (priority 1992, dated 2004)
Entries after “also recorded” stand apart in the source; their conditions may differ. Residues, ends and D or L forms follow the SMILES beside them.

Tests used:
PC12 cells = assay: In vitro neurite outgrowth on peptide membranes; format: cell-based, rat
Protocol: The suitability of these materials for supporting in vitro neurite outgrowth was tested by treating biomaterial-attached PC12 cells with nerve growth factor (NGF). This treatment induces PC12 cells to differentiate into sympathetic neurons which can send out long processes called neurites. There was a marked difference in the neurite promoting properties of the two materials tested (EAK16 and RAD16).
Nerve growth factor differentiated PC12 cells have been used extensively in studies of neurite outgrowth. PC12 cells upregulate the number of calcium-dependent and -independent cell adhesion receptors in response to nerve growth factor. Cell attachment and neurite outgrowth from nerve growth factor differentiated PC12 cells was examined on membranes of RAD16 and EAK16 in order to determine whether membranes containing RGD-like sequences would preferentially support these cell activities. Neurite outgrowth on peptide membranes is of interest for potential applications of nerve repair.
Untreated PC12 cells were introduced to peptide membranes of EAK16 and RAD16 suspended in 85% RMMP1, 10% heat inactivated horse serum, 5 fetal bovine serum. Half of the cells were treated with nerve growth factor (50 ng/ml, NGF) and were supplemented with NGF every 3-4 days for 14 days. […] The neurite outgrowth reached greater than 400 μm in length, approximately 15-20 times the cell body, following the contour of the matrices in a three dimensional network.

3T3 fibroblast cells = assay: Cell attachment to biopolymer sheets, with serum or serum-free + cyclohexamide (Table 5); format: cell-based, mouse; set-up: key: ++++: strong attachment; +++: moderate attachment; ++: weak attachment; +/−: little or no attachment
Protocol: 3T3 fibroblast cells were introduced to membranes of RAD16 and EAK16 in normal serum-containing medium or in serum-free medium containing 30 μg/ml cyclohexamide (cells used for this condition were pretreated in this medium for 2 hours before plating). Cells were allowed to attach to the membranes for 30 minutes, 1 and 8 hours at 37° C. The attached cells were shaken for 10 minutes on a rotary rocker at 60 r.p.m., then scored under phase contrast microscopy. The decrease in cells attached to the membrane in the serum-free condition reflects cell loss due to serum deprivation.

[1] = Ions tested for effectiveness at inducing membrane formation; conditions of membrane formation; format: physicochemical
Protocol: Various metal cations were tested for effectiveness at inducing membrane formation from EAK16. […] The order of effectiveness of the monovalent cations appears to be Li^+>Na^+>K^+>Cs^+. Cs^+ produces the least amount of membranes and in addition, yields nonmembranous precipitates. The effectiveness of the monovalent cations appears to correlate inversely with the crystal radii of the ions: Li^+ (0.6 Å), Na^+ (0.95 Å), K^+ (1.33 Å), and Cs^+ (1.69 Å) (Pauling, 1960). A correlation is also seen with the hydrated radii of the ions: Li^+ (3.4 Å), Na^+ (2.76 Å), K^+ (2.32 Å), and Cs^+ (2.28 Å), and with the order of enthalpies of the monovalent cations (Pauling, 1960). It is not known at present if the monovalent metal cations act as a catalyst or if they are incorporated into the membrane. […] Thus, membrane formation appears to be independent of salt concentration over this wide range. Salt concentrations of less than 5 mM may also induce membrane formation, but at a slower rate. The initial concentration of the peptide is a significant factor in the size and thickness of the membrane formed. In general, the higher the peptide concentration, the higher the extent of membrane formation. Membranes can form from initial peptide concentrations as low as 0.5 mM or 1 mg/ml. However, membranes formed at higher initial peptide concentrations (about 10 mg/ml) are thicker and thus, likely to be stronger. Therefore, it is preferable when producing the membranes to add peptide to a salt solution, rather than to add salt to a peptide solution. Formation of the membranes is very fast, on the order of a few minutes, and seems to be irreversible (see below). The process is unaffected by pH≦12 (the peptides tend to precipitate out at pH above 12), and by temperature. The membranes can form at temperatures in the range of 4 to 90° C. Formation of the membranes is inhibited by the presence of divalent metal cations at concentrations equal to or greater than 100 μM, which promote unstructured aggregation rather than membrane formation, and by sodium dodecyl sulfate (SDS) at a concentration of at least 0.1%.

[2] = format: physicochemical
Protocol: Once formed, the macroscopic membranes are stable in a variety of aqueous solutions, including water, phosphate-buffered saline (PBS), tissue culture medium, serum, and also in ethanol, and can be transferred to and stored in any of these liquids. […] The membranes can be transferred from one solution to another using a solid support such as a spatula. They can be broken by cutting, tearing or shearing.
The stability of the membranes was also tested under a range of temperature, pH and chemical conditions. For these experiments, membranes were formed by adding 20 μl of a 0.5 mM stock solution of EAK16 to 0.5 ml of PBS, and transferred into water or other solutions at test conditions.
The membranes could be frozen and thawed, although care was required in handling the frozen membranes which were brittle. In boiling water, the membranes tended to be sheared by the mechanical agitation. […] (FIGS. 9A and 9B). […] Such strong thermal stability of the defined β-sheet structure of EAK16 is unusual for a small peptide. For example, these findings contrast with the α-helix-forming sixteen residue (Ala, Glu, Lys)-containing peptides studied previously (Marqusee and Baldwin, 1987).
The EAK16 membranes were also tested in water at pH 1.5, 3, 7 and 11 at room temperature for at least a week and at 95° C. for about 4 hours. The membranes were unaffected at these pH. […] It is possible that the complementary interactions between the Glu and Lys side-chains are strong even when the carboxyl groups of the Glu residues have been protonated at pH 1.5 and 3, due to their ability to form hydrogen bonds even when protonated.
The EAK16 membranes were further tested for resistance to chemical denaturation under the following conditions: 1% and 10% sodium dodecyl sulfate (SDS); 1, 2, 3, 4, 5, 6 and 7 M guanidine-HCl; and 1, 2, 3, 4, 5, 6, 7 and 8 M urea. […] The membranes were also tested at 95° C. for 4 hours in 10% SDS; 7 M guanidine-HCl; and at 8 M urea.

[3] = Nucleotide hydrolysis activity; format: biochemical
Source text: In addition, the ability of small peptides such as EAK16 to self-assemble into membranes may be useful in origin of life studies related to cell membranes and cellular compartmentalization. […] This activity is probably due to the ability of lysine and glutamic acid side-chains to perform general acid and base catalysis.

order of effectiveness of the monovalent cations [1]: Li^+>Na^+>K^+>Cs^+
effect of anions and organic ions on membrane formation ([1]; acetate, Cl^−, SO4^−2, PO4^−2, NH4^+ and Tris-Cl): not found to induce membrane formation
resistance of membranes to chemical denaturation at room temperature ([2]; 1% and 10% SDS, 1-7 M guanidine-HCl, 1-8 M urea, room temperature at least 4 days): remained stable
membranes in 8 M urea at 95° C. ([2]; 95° C. for 4 hours, 8 M urea): dissolved
membranes in SDS and 7 M guanidine-HCl at 95° C. ([2]; 95° C. for 4 hours, 10% SDS, 7 M guanidine-HCl): remained intact
pH at which membranes and filaments are stable ([2]; alkaline and acidic pH): 1.5-11
SMILES: CC(=O)N[C@@H](C)C(=O)N[C@@H](CCC(=O)O)C(=O)N[C@@H](C)C(=O)N[C@@H](CCC(=O)O)C(=O)N[C@@H](C)C(=O)N[C@@H](CCCCN)C(=O)N[C@@H](C)C(=O)N[C@@H](CCCCN)C(=O)N[C@@H](C)C(=O)N[C@@H](CCC(=O)O)C(=O)N[C@@H](C)C(=O)N[C@@H](CCC(=O)O)C(=O)N[C@@H](C)C(=O)N[C@@H](CCCCN)C(=O)N[C@@H](C)C(=O)N[C@@H](CCCCN)C(N)=O [EAK16] (Ac-AEAEAKAKAEAEAKAK-NH2)
neurite outgrowth of NGF-treated PC12 cells, in words (PC12 cells; NGF-treated PC12 cells on membranes): little neurite processes; also recorded: little neurite outgrowth
Neurite outgrowth, untreated, 14 days (PC12 cells; PC12 cells without NGF, 14 days): − (no neurite outgrowth)
cell attachment (3T3 fibroblast cells; 3T3, 30 min, medium with serum, no cyclohexamide): ++++
cell attachment (3T3 fibroblast cells; 3T3, 30 min, serum-free medium, + cyclohexamide): ++++
cell attachment (3T3 fibroblast cells; 3T3, 60 min, medium with serum, no cyclohexamide): ++++
cell attachment (3T3 fibroblast cells; 3T3, 60 min, serum-free medium, + cyclohexamide): ++++
cell attachment (3T3 fibroblast cells; 3T3, 8 hrs, medium with serum, no cyclohexamide): ++++
cell attachment (3T3 fibroblast cells; 3T3, 8 hrs, serum-free medium, + cyclohexamide): ++
effect of divalent cations on membrane formation [1]: divalent cations primarily induce unstructured aggregates
effect of monovalent metal cations on membrane formation [1]: monovalent metal cations induce membrane formation
stability of membranes and filaments in liquids [2]: stable in aqueous solution, in serum, and in ethanol
stability of membranes in water or PBS [2]: stable in water or PBS for at least a week
stability of membranes in water over temperature [2]: stable in water over a wide range of temperatures: up to 95° and at 4°, −20°, and −80 °C
nucleotide hydrolysis activity [3]: partial nucleotide hydrolysis activity
